Measured values published in PMC3407795 (EJNMMI Research, 2012).
Like-named read-outs stand apart in the source and are kept apart here.

Columns and labels:
[1] = Metabolism in blood (in vivo stability); parameters: species or system mouse; conditions: healthy male Swiss albino mice, blood collected 5 min after iv injection (3 nmol), RP-HPLC radioanalysis
Procedure: The animals were kept for 5 min in cages with free access to water. They were sacrificed by cardiac puncture under ether anesthesia, and blood was withdrawn with a syringe and immediately placed in a pre-chilled EDTA-containing polypropylene vial on ice. Blood samples were centrifuged at 2,000 × g at 4 °C for 10 min.

[2] = Biodistribution in healthy mice; format: in vivo; conditions: male, mouse, 10 pmol total peptide, total radioactivity, healthy Swiss albino mice, iv 10 pmol; for tissue uptake at 4 h: 4 h pi
Procedure: In the in vivo receptor blockade animal group, excess Tate (50 nmol) was administered intravenously (iv) together with the radioligand. Animals were sacrificed in groups of four at 4- and 24-h time points post injection (pi). […] Tissue distribution data were calculated as percent injected dose per gram (%ID/g) applying a suitable algorithm.
The in vivo data presented as mean %ID/g ± SD (n ≥ 4) were statistically analyzed with Student’s t test (Prism^TM 2.01, GraphPad Software, San Diego, CA, USA). Analyses were 2-tailed, and a P value < 0.05 was considered statistically significant.

intact radiopeptide detected in blood [1]: 2%
tissue uptake at 4 h ([2]; kidney, read-out: Kidney uptake): 10.9 %ID/g
tissue uptake at 24 h ([2]; kidney, 24 h pi): 6.6 %ID/g
tissue uptake at 4 h ([2]; pancreas, read-out: Pancreas uptake): < 0.5 %ID/g
SMILES: C[C@H](NC(=O)CN1CCN(CC(=O)O)CCN(CC(=O)O)CCN(CC(=O)O)CC1)C(=O)NCC(=O)N[C@H]1CSSC[C@@H](C(=O)O)NC(=O)[C@H](CO)NC(=O)[C@H]([C@@H](C)O)NC(=O)[C@H](Cc2ccccc2)NC(=O)[C@H]([C@@H](C)O)NC(=O)[C@H](CCCCN)NC(=O)[C@H](Cc2c[nH]c3ccccc23)NC(=O)[C@H](Cc2ccccc2)NC(=O)[C@H](Cc2ccccc2)NC(=O)[C@H](CC(N)=O)NC(=O)[C@H](CCCCN)NC1=O [[^111In]AT1S, metal not drawn]
